Laboratory results as given in patent publication US7462598B2, “Antimicrobial theta defensins, analogs thereof, and methods of use” (priority 2002, dated 2008).
Bridge positions count the residues as written; N and C are the ends. Peptide text beside a SMILES is read from it.

Assays:
[1] = tested on: E. coli ML35; experiment: Membrane permeabilization assay (ONPG hydrolysis); type: cell-based, Escherichia coli; conditions: rates at 1 μg/ml concentration of each peptide
Description: For the membrane permeabilization assay, the permeabilization of bacterial cytoplasmic membranes was determined by measuring hydrolysis of o-nitrophenyl-β-D-galactcpyranoside (ONPG) in E. coli ML35 (Sitaram et al., FEBS Lett. 303:265-268 (1992); Lehrer et al.,. J. Immunol. Methods 108:153-158 (1988)). Peptides dissolved in 5 μl of 0.01% acetic acid were two-fold serially diluted with 10 mM PIPES, pH 7.4, containing 3 mM ONPG, to final peptide concentrations of 0-8.0 μg/ml. Log-phase bacteria, prepared in PIPES buffer as described for the microbicidal assay (see Example I), were added to 1×10^6 CFU/ml final density in a final volume of 90 μl. ONPG hydrolysis was measured at 405 nm for 60 min using a SpectraMAX 190 plate reader and SOFTmaxPRO 3.1 (Molecular Devices Corp., CA). […]

[2] = tested on: white blood cells; experiment: Cytokine-antibody array of supernatants of white blood cells (ex vivo LPS model); type: cell-based; conditions: 18 h, relative to control supernatants
Description: The anti-inflammatory properties of RTD-1 were evaluated by determining the relative levels of cytokines produced by stimulated white blood cells. Blood was obtained from healthy donors in accordance with institutional guidelines. Serum was prepared from the same donor following coagulation and high-speed centrifugation (12,000-15,000 ×g). White blood cells, (WBC) were prepared from EDTA anti-coagulated blood using an established protocol. WBC were suspended in RPMI 1640 (Gibco; Invitrogen, Carlsbad Calif.) containing 10% FBS and 1% autologous serum. Aliquots containing 2×10^6 cells were added to each well of a sterile 12-well plate, and cells were allowed to incubate for 18 h at 37° C. in a humidified incubator with 5% carbon dioxide. […] Cell-free supernatants were collected by centrifugation at 12,000×g and incubated with cytokine-antibody arrays per the manufacturer's protocol (RayBiotech; Norcross Ga.). The cytokines on each array were visualized with a chemi-luminescent kit (Pierce; Rockford Ill.) and enumerated by spot density analysis with ChemiImager 5.5 (Alpha Innotech; San Leandro Calif.).

[3] = tested on: S. aureus 502a; experiment: Cell-suspension microbicidal assay (MMC); type: cell-based, Staphylococcus aureus; conditions: lowest concentration that reduced cell viability by 99.9%; 10 mM PIPES, 5 mM glucose, pH 7.4; 2 h 37° C.
Description: (§1) To test microbicidal activities, the activities of each peptide against S. aureus 502a, E. coli ML35, and C. albicans 16820 were assessed essentially as described in Example I with modifications to allow for simultaneous analysis of all twenty peptides. Briefly, two-fold serial dilutions of each peptide (in 0.01% acetic acid 0.062-8.0 μg/ml final concentrations) were mixed with 10 mM PIPES, pH 7.4, containing 5 mM glucose in sterile polystyrene 96-well plates (Corning, N.Y.). Aliquots of log-phase bacteria or yeast were added to a 2×10^6 CFU/ml final density as determined by A620. After 2 h incubation at 37° C., 15 μl of the incubation mixture was removed and serially diluted ten-fold from 1:10 to 1:10^6 in trypticase soy broth (bacteria) or Sabaraud dextrose broth (C. albicans). The diluted cell suspensions were grown 24-48 h at 37° C. until cell pellets were visible. Microbicidal activity was determined as absence of growth and was correlated to CFU/ml in control experiments where activity was determined in parallel by colony counting (see Example I). Absence of growth at the 1:10^3 dilution is equivalent to a 3-log reduction in microbial viability.
(§2) The microbicidal activities of each peptide against E. coli ML35, S. aureus 502a, and C. albicans 16820 were determined with cell-suspension microbicidal assays in 96-well plates (see Example II). Briefly, log-phase cells (2×10^6 CFU/ml final) were incubated with increasing concentrations of peptides (0-8 μg/ml final) in 50 μl of 10 mM PIPES, 5 mM glucose, pH 7.4, for 2 h at 37° C. Incubation mixtures were diluted 1:10 to 1:10^6 with trypticase-soy broth (bacteria) or Sabaraud dextrose broth (fungi) and incubated at 37° C. for 24-48 h until cell pellets were visible. Microbicidal activities (confirmed in control experiments as described in Example II) were determined as the absence of a cell pellet in the various dilutions. Peptide concentrations that caused ≧99.9% killing (absence of a cell pellet at 1:10^3 dilution) were taken as the minimum microbicidal concentrations (MMC).

[4] = tested on: E. coli ML35; experiment: Cell-suspension microbicidal assay (MMC); type: cell-based, Escherichia coli; conditions: lowest concentration that reduced cell viability by 99.9%; 10 mM PIPES, 5 mM glucose, pH 7.4; 2 h 37° C.
Description: as §1, §2

[5] = tested on: human erythrocytes; experiment: Hemolysis assay; type: cell-based
Description: For the hemolysis assay, the hemolytic activity of each peptide was determined by the method of Tam et al. (Tam et al., Eur. J. Biochem. 267:3289-3300 (2000)). Blood was obtained from a healthy donor in accordance to a protocol approved by the Institutional Review Board. Normal human serum was prepared from the same individual and stored at −20° C. Red blood cells (RBC) were prepared from blood collected in EDTA. RBC were harvested at 234×g for 10 min, 22° C., washed four times with 10 mM sodium phosphate, 150 mM NaCl, pH 7.4 (PBS), containing 4 mM EDTA and resuspended in PBS without EDTA. Peptides dissolved in 10 μl 0.01% HOAc were diluted with PBS to final concentrations of 0.3-100 μg/ml. RBC were added to a 2% final density in 100 μl. Incubation mixtures were also prepared with 10% serum. After 1 h incubation at 37° C., the cell suspensions were centrifuged at 234×g for 10 min, 22° C. Fifty-μl samples of the supernatants were removed, and the absorbance at 405 nm (A) was measured. Hemolytic activity of each peptide was calculated relative to lysis by 1% NP-40 using the following formula:
(§3) A selectivity index (SI=H/M) was calculated as a ratio of a peptide concentration (μg/ml) that causes 3% hemolysis (H) obtained from a dose-dependent hemolysis plot over 0.3 to 3 μg/ml of each peptide in PBS and the lowest MMC value (M) for any of the three test microorganisms (see Example II; Table 2).

[6] = tested on: S. aureus 502a, E. coli ML35, and C. albicans 16820; experiment: Cell-suspension microbicidal assay, statements across the test organisms (lowest MMC, overall ranges); type: cell-based; conditions: peptide concentration that kill 99.9% of either S. aureus, E. coli, or C. albicans; lowest MMC value
Description: as §1, §2, §3

[7] = tested on: C. albicans 16820; experiment: Cell-suspension microbicidal assay (MMC); type: cell-based, Candida albicans; conditions: for MMC, C. albicans: lowest concentration that reduced cell viability by 99.9%, 10 mM PIPES, 5 mM glucose, pH 7.4, 2 h 37° C.
Description: as §1, §2

[8] = tested on: S. aureus 502a; type: cell-based, Staphylococcus aureus; conditions: 10% normal human serum; FIG. 7
Description: Dose-dependent staphylocidal activity of each peptide was determined in assays containing 10% normal human serum. Percentages of killing are relative to activities of peptide-containing incubations in which serum was omitted.
To determine the effects of serum, salt, calcium chloride and magnesium chloride on microbicidal activities, peptide activities were determined in assays containing varying ionic strength, divalent cations, and serum. The effect of serum on staphylocidal activity of each peptide was determined by incubating 1×10^6 CFU/ml of S. aureus 502a with increasing peptide concentrations (0.5-4 μg/ml) in 10 mM PIPES, pH 7.4, containing 10% normal human serum for 2 h at 37° C. The effect of sodium chloride on staphylocidal activities was assessed with 5 μg/ml of each peptide in 10 mM PIPES, pH 7.4, containing varying concentrations of sodium chloride (0-160 mM). Effects of divalent cations, CaCl2, or MgCl2 (0-5.6 mM) were assessed in microbicidal assays against E. coli ML35. Bactericidal activities were determined by colony counting (see Example II), and microbicidal potencies were expressed as percent killing as follows:
[formula] where A=surviving bacteria (CFU/ml) after initial incubation with each peptide in buffer containing serum, salt, or divalent cations and Ao=bacterial CFU/ml in the “no-peptide” controls.

[9] = LPS (100 ng/ml) + RTD-1 (100 ng/ml)

CC[C@H](C)[C@@H]1NC(=O)[C@@H]2CSSC[C@H](NC(=O)[C@H](CCCNC(=N)N)NC(=O)[C@@H]3CSSC[C@H](NC1=O)C(=O)N[C@@H]([C@@H](C)O)C(=O)N[C@@H](CCCNC(=N)N)C(=O)NCC(=O)N[C@@H](Cc1ccccc1)C(=O)N3)C(=O)N[C@@H](CC(C)C)C(=O)N[C@H]1CSSC[C@H](NC(=O)[C@H](C(C)C)NC(=O)CNC(=O)[C@H](CCCNC(=N)N)NC(=O)[C@H](CCCNC(=N)N)NC1=O)C(=O)N[C@@H](CCCNC(=N)N)C(=O)N2 [RTD-1] (cyclo(GFCRCLCRRGVCRCICTR); disulfide 3-16, 5-14, 7-12)
ONPG hydrolysis [1]: 9.0 (A405/sec) · 10^−5
ENA-78 fold increase [2, 9]: 10 fold
GCSF fold increase [2, 9]: 1 fold
GM-CSF fold increase [2, 9]: 1 fold
GRO fold increase [2, 9]: 19 fold
IFN-γ fold increase [2, 9]: 60 fold
IL-1β fold increase [2, 9]: 118 fold
IL-2 fold increase [2, 9]: 1 fold
IL-5 fold increase [2, 9]: 118 fold
IL-6 fold increase [2, 9]: 2 fold
IL-7 fold increase [2, 9]: 1 fold
IL-10 fold increase [2, 9]: 2 fold
MCP-2 fold increase [2, 9]: 4 fold
MCSF fold increase [2, 9]: 1 fold
MDC fold increase [2, 9]: 4 fold
MIP-1-δ fold increase [2, 9]: 1 fold
RANTES fold increase [2, 9]: 237 fold
SCF fold increase [2, 9]: 1 fold
SDF-1 fold increase [2, 9]: 178 fold
TARC fold increase [2, 9]: 60 fold
TGF-β1 fold increase [2, 9]: 1 fold
TNF-α fold increase [2, 9]: 1 fold
ENA-78 fold increase ([2]; stimulus alone, 100 ng/ml): 1 fold
GCSF fold increase ([2]; stimulus alone, 100 ng/ml): 1 fold
GM-CSF fold increase ([2]; stimulus alone, 100 ng/ml): 1 fold
GRO fold increase ([2]; stimulus alone, 100 ng/ml): 4 fold
IFN-γ fold increase ([2]; stimulus alone, 100 ng/ml): 1 fold
IL-1β fold increase ([2]; stimulus alone, 100 ng/ml): 178 fold
IL-2 fold increase ([2]; stimulus alone, 100 ng/ml): 1 fold
IL-5 fold increase ([2]; stimulus alone, 100 ng/ml): 60 fold
IL-6 fold increase ([2]; stimulus alone, 100 ng/ml): 2 fold
IL-7 fold increase ([2]; stimulus alone, 100 ng/ml): 1 fold
IL-10 fold increase ([2]; stimulus alone, 100 ng/ml): 1 fold
MCP-2 fold increase ([2]; stimulus alone, 100 ng/ml): 2 fold
MCSF fold increase ([2]; stimulus alone, 100 ng/ml): 60 fold
MDC fold increase ([2]; stimulus alone, 100 ng/ml): 2 fold
MIP-1-δ fold increase ([2]; stimulus alone, 100 ng/ml): 1 fold
RANTES fold increase ([2]; stimulus alone, 100 ng/ml): 1 fold
SCF fold increase ([2]; stimulus alone, 100 ng/ml): 1 fold
SDF-1 fold increase ([2]; stimulus alone, 100 ng/ml): 1 fold
TARC fold increase ([2]; stimulus alone, 100 ng/ml): 1 fold
TGF-β1 fold increase ([2]; stimulus alone, 100 ng/ml): 1 fold
TNF-α fold increase ([2]; stimulus alone, 100 ng/ml): 1 fold
MMC, S. aureus [3]: 1.0 µg/mL
MMC, E. coli [4]: 2.0 µg/mL
H ([5]; peptide concentration that causes 3% hemolysis, calculated from dose-dependent hemolysis plot over 0.3-3 μg/ml in PBS): 5.5 µg/mL
M [6]: 1 µg/mL
MMC, C. albicans [7]: 1.0 µg/mL

CC(C)C[C@H](NC(=O)[C@H](CCCNC(=N)N)NC(=O)CNC(=O)CNC(=O)[C@@H](N)CCCNC(=N)N)C(=O)N[C@H]1CSSC[C@@H](C(=O)N[C@H](C(=O)NCC(=O)N[C@@H](CCCNC(=N)N)C(N)=O)C(C)C)NC(=O)[C@H](C(C)C)NC(=O)[C@@H]2CSSC[C@H](NC(=O)[C@H](Cc3ccc(O)cc3)NC1=O)C(=O)N[C@@H](CCCNC(=N)N)C(=O)N[C@@H](CCCNC(=N)N)C(=O)N[C@@H](CCCNC(=N)N)C(=O)N[C@@H](Cc1ccccc1)C(=O)N2 [PG-1, reference compound]
ONPG hydrolysis [1]: 11.3 (A405/sec) · 10^−5
staphylocidal activity in assay containing serum (in words) [8]: unaffected
MMC, S. aureus [3]: 0.4 µg/mL
M [6]: 0.38 µg/mL
MMC, C. albicans [7]: 0.8 µg/mL

CC(C)[C@@H]1NC(=O)[C@@H]2CSSC[C@H](NC(=O)[C@H](CCCNC(=N)N)NC(=O)[C@@H]3CSSC[C@H](NC1=O)C(=O)N[C@@H](CCCNC(=N)N)C(=O)N[C@@H](CCCNC(=N)N)C(=O)NCC(=O)NCC(=O)N3)C(=O)N[C@@H](Cc1ccc(O)cc1)C(=O)N[C@H]1CSSC[C@H](NC(=O)[C@H](Cc3ccccc3)NC(=O)[C@H](CCCNC(=N)N)NC(=O)[C@H](CCCNC(=N)N)NC(=O)[C@H](CCCNC(=N)N)NC1=O)C(=O)N[C@@H](C(C)C)C(=O)N2 [3cys cPG-1] (cyclo(GGCRCYCRRRFCVCVCRR); disulfide 3-16, 5-14, 7-12)
ONPG hydrolysis [1]: 10.7 (A405/sec) · 10^−5
MMC, S. aureus [3]: 0.5 µg/mL
MMC, E. coli [4]: 1.3 µg/mL
hemolysis [5]: 5-6%
M [6]: 0.5 µg/mL
fold lower candidacidal potency than native PG-1 ([7]; from MMC, Table 2): 3 fold
MMC, C. albicans [7]: 2.5 µg/mL
